Where a SMILES comes first, the peptide text is derived from it.
Assays:
[1] = tested on: PCNA positive cells in the subventricular zone (SVZ); assay: Neuroblast proliferation, PCNA positive cells in subventricular zone; type: in vivo, rat; conditions: 3 days
Method: To carry out these studies, tissues were fixed and embedded in paraffin and sections obtained using standard methods. Coronal sections (6 μm) containing the level of the hippocampus were cut and mounted on chrome-alum-coated slides for staining. The sections were deparaffinized in xylene, […] in a series of ethanol and incubated in 0.1 M phosphate buffered saline (PBS). Primary antibodies against glial fibrillary acidic protein (GFAP) and proliferating cell nuclear antigen (PCNA) were used to mark reactive glial cells and cells undergoing apoptosis and proliferation, respectively. For antigen unmasking (caspase-3 and PCNA staining), sections were heated in 10 mM sodium citrate buffer (pH 6.0) for 1 min at high power. All sections were pretreated with 1% H2O2 in 50% methanol for 30 min to quench the endogenous peroxidase activity. Then either 1.5% normal horse serum or 2.5% normal sheep serum in PBS was applied for 1 h at room temperature to block nonspecific background staining. […] The number of PCNA positive cells was counted in the subventricular zone and the GFAP positive cells was scored in the cerebral cortex. […] The number of PCNA positive cells was counted in the SVZ and the number of cells was then averaged as cells/mm depending on the length of ventricle wall used for counting (FIG. 19A). […]

gastrointestinal cells = conditions: cited from earlier work
[2] = tested on: cortical neurons injured with okadaic acid; assay: In vitro neuroprotection, cortical cultures injured with okadaic acid (MTT); type: cell-based, rat; conditions: 10 μM; okadaic acid injury; 24 hours incubation; MTT-assay
Method: A dam was sacrificed by CO2-treatment, and then was prepared for caesarean section. After surgery, the embryos were removed from their amniotic sacs and decapitated. The heads were placed on ice in DMEM/F12 medium for striatum and PBS+0.65% D(+)-glucose for cortex.
The two cortical hemispheres were carefully removed by spatula from the whole brain with the ventral side facing upside into a PBS+0.65% D(+)-glucose containing petri dish. Forceps were put into the rostral part (near B. olfactorius) of the cortex in order to fix the tissue and two lateral-sagittal oriented cuts were made to remove the […] and entorhinal cortices. […]
The cells were triturated once with a glass Pasteur pipette in 1 ml of Neurobasal/B27 medium and subsequently twice by using a 1 ml insulin syringe with a 22 gauge needle. […] Cells were counted and adjusted to 50,000 cells per 60 μl. […]
To cause toxic injury to neurons, we exposed neurons to 1:100 parts of okadaic acid at concentrations of 30 nM or 100 nM and 0.5 mM 3-nitropropionic acid (for cerebellar microexplants only). […] The survival rate was determined by a colorimetric end-point MTT-assay at 595 nm in a multi-well plate reader. For the cerebellar microexplants four windows (field of 0.65 mm^2) with highest cell density were chosen and cells displaying neurite outgrowth were counted.

C[C@@]1(C(=O)N[C@@H](CCC(=O)O)C(=O)O)CCCN1C(=O)CN [Example G-2-MePE, Glycyl-L-2-methylprolyl-L-glutamic acid] (HELM PEPTIDE1{G.[C[C@@]1(C(=O)[*:2])CCCN1[*:1]].E}$$$$V2.0)
number of PCNA positive cells in SVZ ([1]; 9 month old rats, 1.2 mg/kg i.p., p<0.005): significant increase
number of PCNA positive cells in SVZ ([1]; 18 month old rats, single i.p. 12 mg/kg, vs vehicle p<0.05): significant increase
degradation by gastrointestinal cells (gastrointestinal cells): not degraded
uptake by gastrointestinal cells (gastrointestinal cells): taken up
neuroprotection [2]: 59%
